Experimental data taken from US11596639B2, “Substituted indole Mcl-1 inhibitors” (Vanderbilt University, priority 2016, dated 2023).
pKi: −log10 of the molar value. Like-named read-outs stand apart in the source and are kept apart here.

Assays:
Mcl-1 = Mcl-1 (Homo sapiens (Human), UniProt Q07820); test: Fluorescence polarization anisotropy (FPA) competition assay, FITC-Bak or FITC-Bim BH3 peptide; assay type: binding; conditions: read-out: Ki for Inhibition of Mcl-1 by FPA assay
[1] = system: H929 human cancer cell lines; test: Cellular viability / proliferation (Cell TiterGlo, 72 h); assay type: cell-based
How it was run: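 1,000 cells/well, 10% FBS medium; compound added at 24 h, 2-fold dilutions from 50 μM top, DMSO <1% final. 72 h exposure, CellTiterGlo 30 min RT dark, luminescence read. IC50 by 4-parameter fit.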

[2] = Homo sapiens, NCI-H929, 72 h, read-out: GI50 on cellular proliferation of H929 human cancer cell lines, H929 cells, 72 h, Cell TiterGlo, 10% FBS
[3] = H929 cells, 72 h, Cell TiterGlo, 10% FBS, read-out: GI50 on cellular proliferation of H929 human cancer cell lines

Mcl-1, sequence (Q07820 172-327): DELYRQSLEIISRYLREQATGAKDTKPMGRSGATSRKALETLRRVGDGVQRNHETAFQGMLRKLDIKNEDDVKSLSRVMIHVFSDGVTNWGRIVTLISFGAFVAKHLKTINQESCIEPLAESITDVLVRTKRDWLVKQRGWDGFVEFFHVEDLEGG

Structure (SMILES) | pKi (Mcl-1) | GI50 [1, 2] [µM] | GI50 ([1]; read-out: GI50 on cellular proliferation of H929 human cancer cell lines, H929 cells, 72 h, Cell TiterGlo, 10% FBS) [µM] | GI50 [1, 3] [µM]
Cc1cc(OCCCc2c3n(c4c(-c5c(C)nn(CCN6CCCC6)c5C)c(Cl)ccc24)[C@H](C)CN(c2cn(C)c4ccc(C(=O)O)cc24)C3=O)cc(C)c1Cl [Example 263, (R)-3-(7-chloro-10-(3-(4-chloro-3,5-dimethylphenoxy)propyl)-6-(3,5-dimethyl-1-(2-(pyrrolidin-1-yl)ethyl)-1H-pyrazol-4-yl)-4-methyl-1-oxo-3,4-dihydropyrazino[1,2-a]indol-2(1H)-yl)-1-methyl-1H-indole-5-carboxylic acid] | 8.74 | 0.27 | – | –
Cc1cc(OCCCc2c3n(c4c(-c5c(C)nn(C)c5C)c(Cl)ccc24)[C@H](C)CN(c2ccc4cc(C(=O)O)ccc4c2)C3=O)cc(C)c1Cl [Example 185, (R)-6-(7-Chloro-10-(3-(4-chloro-3,5-dimethylphenoxy)propyl)-4-methyl-1-oxo-6-(1,3,5-trimethyl-1H-pyrazol-4-yl)-3,4-dihydropyrazino[1,2-a]indol-2(1H)-yl)-2-naphthoic acid] | 8.34 | 2.9 | – | –
Cc1cc(OCCCc2c3n(c4c(-c5c(C)nn(C)c5C)c(Cl)ccc24)[C@H](C)CN(c2cccc4nn(C)c(C(=O)O)c24)C3=O)cc(C)c1Cl [Example 133, 4-[(4R)-7-chloro-10-[3-(4-chloro-3,5-dimethyl-phenoxy)propyl]-4-methyl-1-oxo-6-(1,3,5-trimethylpyrazol-4-yl)-3,4-dihydropyrazino[1,2-a]indol-2-yl]-2-methyl-indazole-3-carboxylic acid] | > 9.00 | – | 1.4 | –
Cc1cc(OCCCc2c3n(c4c(-c5c(C)n[nH]c5C)c(Cl)ccc24)CCCN(c2cc(C(=O)O)c4cnn(C)c4c2)C3=O)cc(C)c1Cl [Example 95, 6-(8-Chloro-1-(3-(4-chloro-3,5-dimethylphenoxy)propyl)-7-(3,5-dimethyl-1H-pyrazol-4-yl)-1-oxo-4,5-dihydro-1H-[1,4]diazepino[1,2-a]indol-2(3H)-yl)-1-methyl-1H-indazole-4-carboxylic acid] | > 9.00 | – | – | 10
Cc1cc(N2C[C@@H](C)n3c(c(CCCOc4cc(C)c(Cl)c(C)c4)c4ccc(Cl)c(-c5c(C)n[nH]c5C)c43)C2=O)c2c(c1)cc(C(=O)O)n2C [Example 400, (R)-7-(7-chloro-10-(3-(4-chloro-3,5-dimethylphenoxy)propyl)-6-(3,5-dimethyl-1H-pyrazol-4-yl)-4-methyl-1-oxo-3,4-dihydropyrazino[1,2-a]indol-2(1H)-yl)-1,5-dimethyl-1H-indole-2-carboxylic acid] | 8.85 | 0.43 | – | –
Cc1cc(OCCCc2c3n(c4c(-c5c(C)nn(C)c5C)c(Cl)ccc24)[C@H](C)CN(c2cccc4c(C(=O)O)n(C)nc24)C3=O)cc(C)c1Cl [Example 54, (R)-7-(7-chloro-10-(3-(4-chloro-3,5-dimethylphenoxy)propyl)-4-methyl-1-oxo-6-(1,3,5-trimethyl-1H-pyrazol-4-yl)-3,4-dihydropyrazino[1,2-a]indol-2(1H)-yl)-2-methyl-2H-indazole-3-carboxylic acid] | > 9.00 | 0.32 | – | –
Cc1cc(OCCCc2c3n(c4c(-c5c(C)nn(C)c5C)c(Cl)ccc24)[C@H](C)CN(c2nn(C)c4c(C(=O)O)cccc24)C3=O)cc(C)c1Cl [Example 165, (R)-3-(7-Chloro-10-(3-(4-chloro-3,5-dimethylphenoxy)propyl)-4-methyl-1-oxo-6-(1,3,5-trimethyl-1H-pyrazol-4-yl)-3,4-dihydropyrazino[1,2-a]indol-2(1H)-yl)-1-methyl-1H-indazole-7-carboxylic acid] | 9.00 | 1.2 | – | –
Cc1cc(OCCCc2c3n(c4c(-c5c(C)nn(CC6CCOCC6)c5C)c(Cl)ccc24)[C@H](C)CN(c2cn(C)c4cc(C(=O)O)ccc24)C3=O)cc(C)c1Cl [Example 308, (R)-3-(7-chloro-10-(3-(4-chloro-3,5-dimethylphenoxy)propyl)-6-(3,5-dimethyl-1-((tetrahydro-2H-pyran-4-yl)methyl)-1H-pyrazol-4-yl)-4-methyl-1-oxo-3,4-dihydropyrazino[1,2-a]indol-2(1H)-yl)-1-methyl-1H-indole-6-carboxylic acid] | > 9.00 | 0.41 | – | –
COc1ccc(N2C[C@@H](C)n3c(c(CCCOc4cc(C)c(Cl)c(C)c4)c4ccc(Cl)c(-c5c(C)ncnc5C)c43)C2=O)c2c1cc(C(=O)O)n2Cc1ccccn1 [Example 302, 7-[(4R)-7-chloro-10-[3-(4-chloro-3,5-dimethyl-phenoxy)propyl]-6-(4,6-dimethylpyrimidin-5-yl)-4-methyl-1-oxo-3,4-dihydropyrazino[1,2-a]indol-2-yl]-4-methoxy-1-(2-pyridylmethyl)indole-2-carboxylic acid] | > 9.00 | < 0.2 | – | –
Cc1cc(OCCCc2c3n(c4c(-c5c(C)ncnc5C)c(Cl)ccc24)[C@H](C)CN(c2cccc4c(C(=O)O)cccc24)C3=O)cc(C)c1Cl [Example 148, 5-[(4R)-7-chloro-10-[3-(4-chloro-3,5-dimethyl-phenoxy)propyl]-6-(4,6-dimethylpyrimidin-5-yl)-4-methyl-1-oxo-3,4-dihydropyrazino[1,2-a]indol-2-yl]naphthalene-1-carboxylic acid] | > 9.00 | 0.65 | – | –
Cc1cc(OCCCc2c3n(c4c(-c5c(C)nn(C)c5C)c(Cl)ccc24)[C@H](C)CN(c2cn(C)c4ccc(-c5ncn(CC6COC6)n5)cc24)C3=O)cc(C)c1Cl [Example 475, (R)-7-Chloro-10-(3-(4-chloro-3,5-dimethylphenoxy)propyl)-4-methyl-2-(1-methyl-5-(1-(oxetan-3-ylmethyl)-1H-1,2,4-triazol-3-yl)-1H-indol-3-yl)-6-(1,3,5-trimethyl-1H-pyrazol-4-yl)-3,4-dihydropyrazino[1,2-a]indol-1(2H)-one] | 8.15 | 0.25 | – | –
Cc1cc(OCCCc2c3n(c4c(-c5c(C)nn(C)c5C)c(Cl)ccc24)[C@H](C)CN(c2cn(C)c4ccc(C(=O)NNc5ccccc5)cc24)C3=O)cc(C)c1Cl [Example 427, (R)-3-(7-Chloro-10-(3-(4-chloro-3,5-dimethylphenoxy)propyl)-4-methyl-1-oxo-6-(1,3,5-trimethyl-1H-pyrazol-4-yl)-3,4-dihydropyrazino[1,2-a]indol-2(1H)-yl)-1-methyl-N′-phenyl-1H-indole-5-carbohydrazide] | 8.92 | 0.49 | – | –
Cc1cc(OCCCc2c3n(c4c(-c5c(C)nn(C)c5C)c(Cl)ccc24)[C@H](C)CN(c2cccc4c2cc(-c2nn[nH]n2)n4C)C3=O)cc(C)c1Cl [Example 307, (4R)-7-chloro-10-[3-(4-chloro-3,5-dimethyl-phenoxy)propyl]-4-methyl-2-[1-methyl-2-(2H-tetrazol-5-yl)indol-4-yl]-6-(1,3,5-trimethylpyrazol-4-yl)-3,4-dihydropyrazino[1,2-a]indol-1-one] | 8.89 | 3.5 | – | –
Cc1nnc(Cn2c(C(=O)O)cc3cccc(N4C[C@@H](C)n5c(c(CCCOc6cc(C)c(Cl)c(C)c6)c6ccc(Cl)c(-c7c(C)nn(C)c7C)c65)C4=O)c32)o1 [Example 315, 7-[(4R)-7-chloro-10-[3-(4-chloro-3,5-dimethyl-phenoxy)propyl]-4-methyl-1-oxo-6-(1,3,5-trimethylpyrazol-4-yl)-3,4-dihydropyrazino[1,2-a]indol-2-yl]-1-[(5-methyl-1,3,4-oxadiazol-2-yl)methyl]indole-2-carboxylic acid] | > 9.00 | 2.8 | – | –
Cc1cc(OCCCc2c3n(c4c(-c5c(C)nn(C)c5C)c(Cl)ccc24)[C@H](C)CN(c2ccc(F)c4c(C(=O)O)cn(C)c24)C3=O)cc(C)c1Cl [Example 447, (R)-7-(7-Chloro-10-(3-(4-chloro-3,5-dimethylphenoxy)propyl)-4-methyl-1-oxo-6-(1,3,5-trimethyl-1H-pyrazol-4-yl)-3,4-dihydropyrazino[1,2-a]indol-2(1H)-yl)-4-fluoro-1-methyl-1H-indole-3-carboxylic acid] | > 9.00 | 0.34 | – | –
Cc1cc(OCCCc2c3n(c4c(-c5c(C)nn(C)c5C)c(Cl)ccc24)[C@H](C)CN(c2cc(OCc4ccccc4)cc4cc(C(=O)O)n(C)c24)C3=O)cc(C)c1Cl [Example 333, (M, R)-5-(Benzyloxy)-7-(7-chlor-10-(3-(4-chloro-3,5-dimethylphenoxy)propyl)-4 methyl-1-oxo-6-(1,3,5-trimethyl-1H-pyrazol-4-yl)-3,4-dihydropyrazino[1,2-a]indol-2(1H)-yl)-1-methyl-1H-indole-2-carboxylic acid] | 8.89 | – | – | 1.1
Cc1cc(OCCCc2c3n(c4c(-c5c(C)nn(C)c5C)c(Cl)ccc24)[C@H](C)CN(c2ccc(OCc4ccccc4)c4c2cc(C(=O)O)n4C)C3=O)cc(C)c1Cl [Example 327, (P, R)-7-(Benzyloxy)-4-(7-chloro-10-(3-(4-chloro-3,5-dimethylphenoxy)propyl)-4-methyl-1-oxo-6-(1,3,5-trimethyl-1H-pyrazol-4-yl)-3,4-dihydropyrazino[1,2-a]indol-2(1H)-yl)-1-methyl-1H-indole-2-carboxylic acid] | 8.80 | – | – | 3.6
Cc1cc(OCCCc2c3n(c4c(-c5c(C)nn(CCN(C)C)c5C)c(Cl)ccc24)[C@H](C)CN(c2cn(C)c4cc(C(=O)O)ccc24)C3=O)cc(C)c1Cl [Example 309, (R)-3-(7-chloro-10-(3-(4-chloro-3,5-dimethylphenoxy)propyl)-6-(1-(2-(dimethylamino)ethyl)-3,5-dimethyl-1H-pyrazol-4-yl)-4-methyl-1-oxo-3,4-dihydropyrazino[1,2-a]indol-2(1H)-yl)-1-methyl-1H-indole-6-carboxylic acid] | > 9.00 | 0.53 | – | –
